What was measured:
TMD8 = assay: Tumor cell proliferation inhibition (CellTiter-Meiluncell Luminescent Cell Viability Assay), TMD8; conditions: Homo sapiens, TMD8, 96 h, read-out: inhibitory activity (IC50, nM) against tumor cells proliferation, TMD8
[1] = molecular target: T1, human Cereblon WT GST-tagged protein (Homo sapiens, UniProt Q96SW2); assay: CRBN-binding affinity by HTRF (CEREBLON BINDING kit); conditions: HTRF inhibitory activity, CEREBLON BINDING kit; read-out: HTRF IC50
T1 construct: purchased CISBIO 64BDCRBNPEH
T1 sequence (Q96SW2 whole entry): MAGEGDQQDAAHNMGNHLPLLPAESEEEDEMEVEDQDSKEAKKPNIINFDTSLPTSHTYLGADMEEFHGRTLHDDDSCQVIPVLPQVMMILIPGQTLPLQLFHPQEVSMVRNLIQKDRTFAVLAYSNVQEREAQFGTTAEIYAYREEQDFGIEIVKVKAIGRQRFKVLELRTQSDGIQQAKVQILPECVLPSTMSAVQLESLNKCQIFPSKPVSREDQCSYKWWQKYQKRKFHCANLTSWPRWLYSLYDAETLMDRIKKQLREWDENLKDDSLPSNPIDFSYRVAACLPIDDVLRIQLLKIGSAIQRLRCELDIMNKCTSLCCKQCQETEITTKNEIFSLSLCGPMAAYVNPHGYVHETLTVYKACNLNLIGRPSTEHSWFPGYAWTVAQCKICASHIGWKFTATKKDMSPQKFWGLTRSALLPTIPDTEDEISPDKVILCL

[2] = system: Human breast cancer cells (MDA-MB-231); assay: Tumor cell proliferation inhibition (CellTiter-Meiluncell Luminescent Cell Viability Assay), MDA-MB-231; conditions: MDA-MB-231, 96 h, read-out: inhibitory activity (IC50, nM) against tumor cells proliferation, MDA-MB-231
GSPT1 = molecular target: T2, GSPT1 (Homo sapiens, UniProt P15170+Q96SW2); assay: Western-blot assay of substrate protein degradation in hPBMCs, GSPT1; type: cell-based; conditions: 24 hours of compound treatment, compounds tested at 50 nM and 500 nM (concentration of the table not stated)
T2 construct: endogenous in cells; host or cells: hPBMCs (Milecell Biotechnologies)
T2 sequence (P15170 whole entry): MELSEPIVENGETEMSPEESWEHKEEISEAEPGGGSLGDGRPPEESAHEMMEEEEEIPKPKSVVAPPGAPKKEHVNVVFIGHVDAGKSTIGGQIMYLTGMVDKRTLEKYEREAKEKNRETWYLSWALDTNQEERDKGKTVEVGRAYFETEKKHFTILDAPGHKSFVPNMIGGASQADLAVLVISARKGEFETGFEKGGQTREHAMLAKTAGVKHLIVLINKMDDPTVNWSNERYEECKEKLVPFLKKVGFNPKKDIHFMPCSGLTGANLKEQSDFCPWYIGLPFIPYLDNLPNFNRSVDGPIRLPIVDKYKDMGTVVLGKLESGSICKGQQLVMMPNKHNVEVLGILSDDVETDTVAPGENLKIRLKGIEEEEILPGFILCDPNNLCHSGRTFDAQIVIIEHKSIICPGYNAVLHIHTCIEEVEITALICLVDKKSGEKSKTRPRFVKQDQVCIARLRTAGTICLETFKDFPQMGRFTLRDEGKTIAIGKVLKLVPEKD
T2 sequence (Q96SW2 whole entry): as the sequence (Q96SW2 whole entry) above
T2 sequence (Q16531 whole entry partner): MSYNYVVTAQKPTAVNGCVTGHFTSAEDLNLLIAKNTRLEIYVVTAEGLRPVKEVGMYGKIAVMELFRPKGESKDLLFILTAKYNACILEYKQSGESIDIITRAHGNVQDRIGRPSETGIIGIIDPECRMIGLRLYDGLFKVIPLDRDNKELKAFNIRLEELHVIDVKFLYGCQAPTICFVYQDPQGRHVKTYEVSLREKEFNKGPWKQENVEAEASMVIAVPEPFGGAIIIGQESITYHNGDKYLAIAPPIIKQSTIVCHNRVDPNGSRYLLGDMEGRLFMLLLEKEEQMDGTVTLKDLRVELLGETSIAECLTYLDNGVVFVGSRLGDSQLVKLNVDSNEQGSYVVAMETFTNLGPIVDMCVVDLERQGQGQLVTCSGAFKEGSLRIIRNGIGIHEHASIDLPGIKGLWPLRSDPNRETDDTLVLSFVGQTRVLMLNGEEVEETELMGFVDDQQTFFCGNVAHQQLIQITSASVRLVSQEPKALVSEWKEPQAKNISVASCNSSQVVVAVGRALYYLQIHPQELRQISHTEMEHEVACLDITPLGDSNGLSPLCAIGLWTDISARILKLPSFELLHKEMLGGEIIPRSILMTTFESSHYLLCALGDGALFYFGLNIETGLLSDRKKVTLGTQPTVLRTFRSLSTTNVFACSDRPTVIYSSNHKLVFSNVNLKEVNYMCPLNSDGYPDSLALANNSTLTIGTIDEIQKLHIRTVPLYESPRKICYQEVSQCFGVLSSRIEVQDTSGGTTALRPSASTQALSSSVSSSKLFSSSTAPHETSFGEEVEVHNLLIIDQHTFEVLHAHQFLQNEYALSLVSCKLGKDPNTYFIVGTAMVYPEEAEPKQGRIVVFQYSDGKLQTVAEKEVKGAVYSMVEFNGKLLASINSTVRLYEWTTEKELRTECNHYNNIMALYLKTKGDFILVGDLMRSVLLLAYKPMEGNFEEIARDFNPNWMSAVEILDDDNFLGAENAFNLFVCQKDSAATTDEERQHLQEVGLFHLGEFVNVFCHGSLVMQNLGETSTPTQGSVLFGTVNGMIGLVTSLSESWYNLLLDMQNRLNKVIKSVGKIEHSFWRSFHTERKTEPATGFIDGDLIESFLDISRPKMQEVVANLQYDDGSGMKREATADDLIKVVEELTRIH

[3] = system: Human acute T lymphocytic leukemia cells (Molt-4); assay: Tumor cell proliferation inhibition (CellTiter-Meiluncell Luminescent Cell Viability Assay), Molt-4; conditions: MOLT-4, 96 h, read-out: inhibitory activity (IC50, nM) against tumor cells proliferation, Molt 4
NCI-H1975 = assay: Tumor cell proliferation inhibition (CellTiter-Meiluncell Luminescent Cell Viability Assay), NCI-H1975; conditions: Homo sapiens, NCI-H1975, 96 h, read-out: inhibitory activity (IC50, nM) against tumor cells proliferation, H1975
IKZF1 = molecular target: T3, IKZF1 (Homo sapiens, UniProt Q13422+Q96SW2); assay: Western-blot assay of substrate protein degradation in hPBMCs, IKZF1; type: cell-based; conditions: 24 hours of compound treatment, compounds tested at 50 nM and 500 nM (concentration of the table not stated)
T3 construct: endogenous in cells; host or cells: hPBMCs (Milecell Biotechnologies)
T3 sequence (Q13422 whole entry): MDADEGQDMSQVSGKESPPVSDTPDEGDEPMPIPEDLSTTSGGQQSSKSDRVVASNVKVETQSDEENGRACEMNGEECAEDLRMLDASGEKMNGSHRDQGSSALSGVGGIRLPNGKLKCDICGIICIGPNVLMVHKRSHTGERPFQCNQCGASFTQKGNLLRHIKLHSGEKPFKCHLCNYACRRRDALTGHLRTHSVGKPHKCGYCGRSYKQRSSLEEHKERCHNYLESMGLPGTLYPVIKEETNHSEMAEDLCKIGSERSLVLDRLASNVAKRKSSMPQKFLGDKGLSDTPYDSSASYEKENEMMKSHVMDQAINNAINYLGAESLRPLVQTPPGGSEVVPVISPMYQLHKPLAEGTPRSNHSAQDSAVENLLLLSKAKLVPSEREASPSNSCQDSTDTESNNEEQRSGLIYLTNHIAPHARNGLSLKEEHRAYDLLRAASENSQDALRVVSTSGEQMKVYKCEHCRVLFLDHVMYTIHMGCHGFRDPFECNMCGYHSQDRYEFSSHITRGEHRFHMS
T3 sequence (Q96SW2 whole entry): as the sequence (Q96SW2 whole entry) above
T3 sequence (Q16531 whole entry partner): as the sequence (Q16531 whole entry partner) above

CK1α = molecular target: T4, CK1α (Homo sapiens, UniProt P48729+Q96SW2); assay: Western-blot assay of substrate protein degradation in hPBMCs, CK1α; type: cell-based; conditions: 24 hours of compound treatment, compounds tested at 50 nM and 500 nM (concentration of the table not stated)
T4 construct: endogenous in cells; host or cells: hPBMCs (Milecell Biotechnologies)
T4 sequence (P48729 whole entry): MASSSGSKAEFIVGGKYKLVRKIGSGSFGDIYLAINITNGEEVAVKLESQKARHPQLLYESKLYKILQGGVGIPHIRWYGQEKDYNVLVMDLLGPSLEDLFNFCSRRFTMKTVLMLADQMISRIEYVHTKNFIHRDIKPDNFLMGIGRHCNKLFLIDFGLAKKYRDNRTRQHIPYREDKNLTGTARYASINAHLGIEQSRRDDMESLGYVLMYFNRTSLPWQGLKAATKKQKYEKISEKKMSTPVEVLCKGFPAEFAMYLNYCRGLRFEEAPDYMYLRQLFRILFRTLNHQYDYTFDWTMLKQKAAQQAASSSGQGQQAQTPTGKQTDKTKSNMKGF
T4 sequence (Q96SW2 whole entry): as the sequence (Q96SW2 whole entry) above
T4 sequence (Q16531 whole entry partner): as the sequence (Q16531 whole entry partner) above

WEE1 = molecular target: T5, WEE1 (Homo sapiens, UniProt P30291+Q96SW2); assay: Western-blot assay of substrate protein degradation in hPBMCs, WEE1; type: cell-based; conditions: 24 hours of compound treatment, compounds tested at 50 nM and 500 nM (concentration of the table not stated)
T5 construct: endogenous in cells; host or cells: hPBMCs (Milecell Biotechnologies)
T5 sequence (P30291 whole entry): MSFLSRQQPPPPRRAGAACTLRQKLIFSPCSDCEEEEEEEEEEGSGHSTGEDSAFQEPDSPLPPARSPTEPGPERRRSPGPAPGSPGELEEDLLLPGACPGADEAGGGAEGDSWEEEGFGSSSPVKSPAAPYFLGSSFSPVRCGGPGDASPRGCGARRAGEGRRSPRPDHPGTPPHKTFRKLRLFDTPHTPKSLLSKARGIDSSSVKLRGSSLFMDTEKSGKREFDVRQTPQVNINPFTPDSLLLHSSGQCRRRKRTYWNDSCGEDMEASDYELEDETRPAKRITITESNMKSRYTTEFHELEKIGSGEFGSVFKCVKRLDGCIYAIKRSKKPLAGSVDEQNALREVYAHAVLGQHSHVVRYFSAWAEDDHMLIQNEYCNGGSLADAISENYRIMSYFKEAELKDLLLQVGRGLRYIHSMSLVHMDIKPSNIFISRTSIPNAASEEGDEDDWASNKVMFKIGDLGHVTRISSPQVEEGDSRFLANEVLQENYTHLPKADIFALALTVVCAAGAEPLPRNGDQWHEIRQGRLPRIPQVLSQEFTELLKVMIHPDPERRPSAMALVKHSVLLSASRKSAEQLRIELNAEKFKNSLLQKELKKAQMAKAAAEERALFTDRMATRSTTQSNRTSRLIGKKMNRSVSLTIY
T5 sequence (Q96SW2 whole entry): as the sequence (Q96SW2 whole entry) above
T5 sequence (Q16531 whole entry partner): as the sequence (Q16531 whole entry partner) above

IKZF3 = molecular target: T6, IKZF3 (Homo sapiens, UniProt Q96SW2+Q9UKT9); assay: Western-blot assay of substrate protein degradation in hPBMCs, IKZF3; type: cell-based; conditions: 24 hours of compound treatment, compounds tested at 50 nM and 500 nM (concentration of the table not stated)
T6 construct: endogenous in cells; host or cells: hPBMCs (Milecell Biotechnologies)

IKZF2 = molecular target: T7, IKZF2 (Homo sapiens, UniProt Q96SW2+Q9UKS7); assay: Western-blot assay of substrate protein degradation in hPBMCs, IKZF2; type: cell-based; conditions: 24 hours of compound treatment, compounds tested at 50 nM and 500 nM (concentration of the table not stated)
T7 construct: endogenous in cells; host or cells: hPBMCs (Milecell Biotechnologies)
T7 sequence (Q9UKS7 whole entry): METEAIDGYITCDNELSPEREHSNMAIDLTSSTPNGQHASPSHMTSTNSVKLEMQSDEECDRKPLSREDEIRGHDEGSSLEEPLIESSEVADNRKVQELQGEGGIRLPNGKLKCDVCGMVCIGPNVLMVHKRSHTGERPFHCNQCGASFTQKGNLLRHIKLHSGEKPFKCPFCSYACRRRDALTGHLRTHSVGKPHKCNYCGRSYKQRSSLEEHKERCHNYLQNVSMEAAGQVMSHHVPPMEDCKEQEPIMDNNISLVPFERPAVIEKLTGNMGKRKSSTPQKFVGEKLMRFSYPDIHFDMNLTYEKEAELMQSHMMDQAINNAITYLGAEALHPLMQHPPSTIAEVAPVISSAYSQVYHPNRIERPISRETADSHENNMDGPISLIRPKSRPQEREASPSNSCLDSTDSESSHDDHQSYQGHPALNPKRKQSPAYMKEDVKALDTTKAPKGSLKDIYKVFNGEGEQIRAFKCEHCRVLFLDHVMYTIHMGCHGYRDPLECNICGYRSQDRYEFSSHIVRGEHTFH
T7 sequence (Q96SW2 whole entry): as the sequence (Q96SW2 whole entry) above
T7 sequence (Q16531 whole entry partner): as the sequence (Q16531 whole entry partner) above

Row | Structure (SMILES) | IC50 (TMD8) | IC50 [1] | IC50 [2] | IC50 [3] | IC50 (NCI-H1975) | GSPT1 substrate protein remaining % (GSPT1) | IKZF 1 substrate protein remaining % (IKZF1) | CK1a substrate protein remaining % (CK1α) | Weel substrate protein remaining % (WEE1) | IKZF3 substrate protein remaining % (IKZF3) | IKZF2 substrate protein remaining % (IKZF2)
1 | O=C1CCC(N2Cc3cc(CN4CC=C(c5ncccc5F)CC4)ccc3C2=O)C(=O)N1 (centres unmarked) [GT-04689, 3-(5-((3-fluoro-3',6'-dihydro-[2,4'-bipyridin]-1'(2'H)-yl)methyl)-1-oxoisoindolin-2-yl)piperidine-2,6-dione] | 50 to 100 nM | < 500 nM | 10 to 50 nM | 5 to 10 nM | 50 to 100 nM | A (0% ≤ substrate protein remaining % ≤ 80%) | A (0% ≤ substrate protein remaining % ≤ 80%) | A (0% ≤ substrate protein remaining % ≤ 80%) | A (0% ≤ substrate protein remaining % ≤ 80%) | A (0% ≤ substrate protein remaining % ≤ 80%) | A (0% ≤ substrate protein remaining % ≤ 80%)
2 | O=C1CCC(N2Cc3cc(CN4CCC(c5nccc(Cl)c5Cl)CC4)ccc3C2=O)C(=O)N1 (centres unmarked) [GT-04690, 3-(5-((4-(3,4-dichloropyridin-2-yl)piperidin-1-yl)methyl)-1-oxoisoindolin-2-yl)piperidine-2,6-dione] | 500 to 1000 nM | 500 to 1000 nM | 50 to 100 nM | 5 to 10 nM | 100 to 500 nM | A (0% ≤ substrate protein remaining % ≤ 80%) | A (0% ≤ substrate protein remaining % ≤ 80%) | A (0% ≤ substrate protein remaining % ≤ 80%) | A (0% ≤ substrate protein remaining % ≤ 80%) | A (0% ≤ substrate protein remaining % ≤ 80%) | A (0% ≤ substrate protein remaining % ≤ 80%)
3 | O=C1CCC(N2Cc3cc(CN4CC=C(c5ncnc6sccc56)CC4)ccc3C2=O)C(=O)N1 (centres unmarked) [GT-04692, 3-(1-oxo-5-((4-(thieno[2,3-d]pyrimidin-4-yl)-3,6-dihydropyridin-1(2H)-yl)methyl)isoindolin-2-yl)piperidine-2,6-dione] | 10 to 50 nM | < 500 nM | 10 to 50 nM | 1 to 5 nM | 50 to 100 nM | A (0% ≤ substrate protein remaining % ≤ 80%) | A (0% ≤ substrate protein remaining % ≤ 80%) | A (0% ≤ substrate protein remaining % ≤ 80%) | A (0% ≤ substrate protein remaining % ≤ 80%) | A (0% ≤ substrate protein remaining % ≤ 80%) | A (0% ≤ substrate protein remaining % ≤ 80%)
4 | O=C1CCC(N2Cc3cc(CN4CC=C(c5ncc6ccsc6n5)CC4)ccc3C2=O)C(=O)N1 (centres unmarked) [GT-04708, 3-(1-oxo-5-((4-(thieno[2,3-d]pyrimidin-2-yl)-3,6-dihydropyridin-1(2H)-yl)methyl)isoindolin-2-yl)piperidine-2,6-dione] | 10 to 50 nM | 500 to 1000 nM | 5 to 10 nM | 1 to 5 nM | 10 to 50 nM | A (0% ≤ substrate protein remaining % ≤ 80%) | B (80%< substrate protein remaining %≤ 100%) | A (0% ≤ substrate protein remaining % ≤ 80%) | A (0% ≤ substrate protein remaining % ≤ 80%) | B (80%< substrate protein remaining %≤ 100%) | B (80%< substrate protein remaining %≤ 100%)
5 | O=C1CCC(N2Cc3cc(CN4CCC(c5c[nH]c6cc(F)ccc56)CC4)ccc3C2=O)C(=O)N1 (centres unmarked) [GT-04713, 3-(5-((4-(6-fluoro-1H-indol-3-yl)piperidin-1-yl)methyl)-1-oxoisoindolin-2-yl)piperidine-2,6-dione] | 10 to 50 nM | 500 to 1000 nM | 1 to 5 nM | 1 to 5 nM | 5 to 10 nM | A (0% ≤ substrate protein remaining % ≤ 80%) | A (0% ≤ substrate protein remaining % ≤ 80%) | A (0% ≤ substrate protein remaining % ≤ 80%) | A (0% ≤ substrate protein remaining % ≤ 80%) | A (0% ≤ substrate protein remaining % ≤ 80%) | A (0% ≤ substrate protein remaining % ≤ 80%)

Now from value to compound, other results behind:

Row | IC50 (TMD8) | IC50 [1] | IC50 [2] | IC50 [3] | IC50 (NCI-H1975) | Structure (SMILES) | GSPT1 substrate protein remaining % (GSPT1) | IKZF 1 substrate protein remaining % (IKZF1) | CK1a substrate protein remaining % (CK1α) | Weel substrate protein remaining % (WEE1) | IKZF3 substrate protein remaining % (IKZF3) | IKZF2 substrate protein remaining % (IKZF2)
6 | 50 to 100 nM | < 500 nM | 10 to 50 nM | 1 to 5 nM | 50 to 100 nM | O=C1CCC(N2Cc3cc(CN4CC(=C5CCOc6cc(F)ccc65)C4)ccc3C2=O)C(=O)N1 (centres unmarked) [GT-04701, 3-(5-((3-(7-fluorochroman-4-ylidene)azetidin-1-yl)methyl)-1-oxoisoindolin-2-yl)piperidine-2,6-dione] | A (0% ≤ substrate protein remaining % ≤ 80%) | A (0% ≤ substrate protein remaining % ≤ 80%) | A (0% ≤ substrate protein remaining % ≤ 80%) | A (0% ≤ substrate protein remaining % ≤ 80%) | A (0% ≤ substrate protein remaining % ≤ 80%) | A (0% ≤ substrate protein remaining % ≤ 80%)
7 | 10 to 50 nM | < 500 nM | 10 to 50 nM | 1 to 5 nM | 10 to 50 nM | Cc1cc2c(C3=CCN(Cc4ccc5c(c4)CN(C4CCC(=O)NC4=O)C5=O)CC3)ncnc2s1 (centres unmarked) [GT-04704, 3-(5-((4-(6-methylthieno[2,3-d]pyrimidin-4-yl)-3,6-dihydropyridin-1(2H)-yl)methyl)-1-oxoisoindolin-2-yl)piperidine-2,6-dione] | A (0% ≤ substrate protein remaining % ≤ 80%) | A (0% ≤ substrate protein remaining % ≤ 80%) | A (0% ≤ substrate protein remaining % ≤ 80%) | A (0% ≤ substrate protein remaining % ≤ 80%) | A (0% ≤ substrate protein remaining % ≤ 80%) | A (0% ≤ substrate protein remaining % ≤ 80%)
8 | 10 to 50 nM | 500 to 1000 nM | 5 to 10 nM | 1 to 5 nM | 10 to 50 nM | Cc1nc(C2=CCN(Cc3ccc4c(c3)CN(C3CCC(=O)NC3=O)C4=O)CC2)c2ccsc2n1 (centres unmarked) [GT-04718, 3-(5-((4-(2-methylthieno[2,3-d]pyrimidin-4-yl)-3,6-dihydropyridin-1(2H)-yl)methyl)-1-oxoisoindolin-2-yl)piperidine-2,6-dione] | A (0% ≤ substrate protein remaining % ≤ 80%) | A (0% ≤ substrate protein remaining % ≤ 80%) | B (80%< substrate protein remaining %≤ 100%) | A (0% ≤ substrate protein remaining % ≤ 80%) | A (0% ≤ substrate protein remaining % ≤ 80%) | A (0% ≤ substrate protein remaining % ≤ 80%)
9 | 10 to 50 nM | < 500 nM | 5 to 10 nM | 1 to 5 nM | 10 to 50 nM | Cn1cc(C2=CCN(Cc3ccc4c(c3)CN(C3CCC(=O)NC3=O)C4=O)CC2)c2ccc(F)cc21 (centres unmarked) [GT-04723, 3-(5-((4-(6-fluoro-1-methyl-1H-indol-3-yl)-3,6-dihydropyridin-1(2H)-yl)methyl)-1-oxoisoindolin-2-yl)piperidine-2,6-dione] | A (0% ≤ substrate protein remaining % ≤ 80%) | A (0% ≤ substrate protein remaining % ≤ 80%) | A (0% ≤ substrate protein remaining % ≤ 80%) | A (0% ≤ substrate protein remaining % ≤ 80%) | A (0% ≤ substrate protein remaining % ≤ 80%) | A (0% ≤ substrate protein remaining % ≤ 80%)
10 | 50 to 100 nM | < 500 nM | 10 to 50 nM | 5 to 10 nM | 50 to 100 nM | O=C1CCC(N2Cc3cc(CN4C[C@H]5C[C@@H]4CN5c4cccc(Cl)c4Cl)ccc3C2=O)C(=O)N1 (stereo partly drawn) [GT-04724, 3-(5-(((1R,4R)-5-(2,3-dichlorophenyl)-2,5-diazabicyclo[2.2.1]heptan-2-yl)methyl)-1-oxoisoindolin-2-yl)piperidine-2,6-dione] | A (0% ≤ substrate protein remaining % ≤ 80%) | A (0% ≤ substrate protein remaining % ≤ 80%) | A (0% ≤ substrate protein remaining % ≤ 80%) | A (0% ≤ substrate protein remaining % ≤ 80%) | A (0% ≤ substrate protein remaining % ≤ 80%) | A (0% ≤ substrate protein remaining % ≤ 80%)

Reference: patent EP4745137A1 (Gluetacs Therapeutics (Shanghai) Co., Ltd., priority 2023, dated 2025)
